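48-hour exposure; five concentrations; linearly interpolated endpoints. Here, GI50 denotes the concentration required for 50% inhibition of growth. TGI: concentration producing complete growth inhibition.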
Legend:
Experiment in all cases: growth of human tumour cells (NCI), 48 h; in the data active means GI50 below about 0.43 µM; inactive means the rest
RPMI-8226 leukemia = system: RPMI-8226 leukemia
UO-31 renal = system: UO-31 renal
SNB-19 CNS = system: SNB-19 CNS
CCRF-CEM leukemia = system: CCRF-CEM leukemia
COLO 205 colon = system: COLO 205 colon
MALME-3M melanoma = system: MALME-3M melanoma
MOLT-4 leukemia = system: MOLT-4 leukemia
SF-295 CNS = system: SF-295 CNS
HCC-2998 colon = system: HCC-2998 colon
NCI-H226 lung = system: NCI-H226 lung
DLD-1 colon = system: DLD-1 colon
MDA-N = system: MDA-N
CAKI-1 renal = system: CAKI-1 renal
NCI/ADR-RES ovarian = system: NCI/ADR-RES ovarian
UACC-62 melanoma = system: UACC-62 melanoma
NCI-H522 lung = system: NCI-H522 lung
786-0 renal = system: 786-0 renal
KM20L2 colon = system: KM20L2 colon
HOP-92 NSCLC = system: HOP-92 NSCLC
A549 NSCLC = system: A549 NSCLC
SF-539 CNS = system: SF-539 CNS
SK-MEL-28 melanoma = system: SK-MEL-28 melanoma
HS 578T breast = system: HS 578T breast
M14 melanoma = system: M14 melanoma
A498 renal = system: A498 renal
EKVX NSCLC = system: EKVX NSCLC
TK-10 renal = system: TK-10 renal
OVCAR-3 ovarian = system: OVCAR-3 ovarian
PC-3 prostate = system: PC-3 prostate
NCI-H23 lung = system: NCI-H23 lung
SK-MEL-5 melanoma = system: SK-MEL-5 melanoma
T-47D breast = system: T-47D breast
OVCAR-8 ovarian = system: OVCAR-8 ovarian
LOX IMVI melanoma = system: LOX IMVI melanoma
OVCAR-5 ovarian = system: OVCAR-5 ovarian
UACC-257 melanoma = system: UACC-257 melanoma
M19-MEL melanoma = system: M19-MEL melanoma
KM12 colon = system: KM12 colon
HL-60(TB) leukemia = system: HL-60(TB) leukemia
SK-MEL-2 melanoma = system: SK-MEL-2 melanoma
SNB-78 CNS = system: SNB-78 CNS
SW-620 colon = system: SW-620 colon
K-562 leukemia = system: K-562 leukemia
HT29 colon = system: HT29 colon
MDA-MB-435 = system: MDA-MB-435
HOP-62 NSCLC = system: HOP-62 NSCLC
HCT-116 colon = system: HCT-116 colon
SK-OV-3 ovarian = system: SK-OV-3 ovarian
ACHN renal = system: ACHN renal
HCT-15 colon = system: HCT-15 colon
DU-145 prostate = system: DU-145 prostate
BT-549 breast = system: BT-549 breast
IGROV1 ovarian = system: IGROV1 ovarian
U251 CNS = system: U251 CNS
OVCAR-4 ovarian = system: OVCAR-4 ovarian
NCI-H460 lung = system: NCI-H460 lung
LXFL 529 NSCLC = system: LXFL 529 NSCLC
RXF 393 renal = system: RXF 393 renal
MCF7 breast = system: MCF7 breast
DMS 114 small cell lung = system: DMS 114 small cell lung
SNB-75 CNS = system: SNB-75 CNS
SN12C renal = system: SN12C renal
SF-268 CNS = system: SF-268 CNS
DMS 273 small cell lung = system: DMS 273 small cell lung

Cc1nc(-n2nc(-c3ccccc3)cc2-c2ccccc2)sc1C(/C=C\c1ccc([N+](=O)[O-])cc1)=N/NC(=S)NN
> 80.1 µM: TGI (M14 melanoma)
> 82 µM: TGI (ACHN renal)
> 56.5 µM: TGI (CAKI-1 renal)
52.2 µM: TGI (HOP-62 NSCLC)
> 58.3 µM: TGI (UO-31 renal)
98.5 µM: TGI (SK-MEL-2 melanoma)
87.7 µM: TGI (T-47D breast)
56.6 µM: TGI (HCT-15 colon)
> 66.5 µM: TGI (LOX IMVI melanoma)
> 59 µM: TGI (RXF 393 renal)
> 67.7 µM: TGI (UACC-257 melanoma)
41 µM: TGI (HCT-116 colon)
> 31.6 µM: TGI (COLO 205 colon) | TGI (SN12C renal)
> 57.7 µM: TGI (UACC-62 melanoma)
48.6 µM: TGI (DLD-1 colon)
> 70.7 µM: TGI (OVCAR-3 ovarian)
98.9 µM: TGI (DU-145 prostate)
> 100 µM: TGI (RPMI-8226 leukemia) | TGI (CCRF-CEM leukemia) | TGI (MALME-3M melanoma) | TGI (MOLT-4 leukemia) | TGI (SF-295 CNS) | TGI (KM20L2 colon) | TGI (HOP-92 NSCLC) | TGI (A549 NSCLC) | TGI (SK-MEL-28 melanoma) | TGI (HS 578T breast) | TGI (A498 renal) | TGI (EKVX NSCLC) | TGI (PC-3 prostate) | TGI (M19-MEL melanoma) | TGI (KM12 colon) | TGI (SNB-78 CNS) | TGI (SW-620 colon) | TGI (K-562 leukemia) | TGI (MDA-MB-435) | TGI (SK-OV-3 ovarian) | TGI (U251 CNS) | TGI (OVCAR-4 ovarian) | TGI (LXFL 529 NSCLC) | TGI (DMS 114 small cell lung) | TGI (SNB-75 CNS)
> 65.4 µM: TGI (OVCAR-5 ovarian)
> 66.7 µM: TGI (NCI-H460 lung)
> 80 µM: TGI (SNB-19 CNS)
49.2 µM: TGI (BT-549 breast)
50.7 µM: TGI (MDA-N)
> 72 µM: TGI (HT29 colon) | TGI (IGROV1 ovarian)
> 53.4 µM: TGI (SK-MEL-5 melanoma)
60.6 µM: TGI (NCI-H23 lung)
42.3 µM: TGI (NCI-H522 lung)
35.1 µM: TGI (MCF7 breast)
46 µM: TGI (786-0 renal)
> 87.2 µM: TGI (HL-60(TB) leukemia)
28.6 µM: TGI (OVCAR-8 ovarian)
40.3 µM: TGI (HCC-2998 colon)
85.3 µM: TGI (NCI/ADR-RES ovarian)
> 61.3 µM: TGI (SF-539 CNS) | TGI (SF-268 CNS)
> 86.6 µM: TGI (NCI-H226 lung)
> 59.2 µM: TGI (TK-10 renal)

CCCCCCCC(=O)[O-].N.N.N.N.N.[Co+3].[O-][Cl+3]([O-])([O-])[O-]
> 100 µM: TGI (RPMI-8226 leukemia) | TGI (UO-31 renal) | TGI (SNB-19 CNS) | TGI (CCRF-CEM leukemia) | TGI (COLO 205 colon) | TGI (MALME-3M melanoma) | TGI (MOLT-4 leukemia) | TGI (SF-295 CNS) | TGI (HCC-2998 colon) | TGI (DLD-1 colon) | TGI (UACC-62 melanoma) | TGI (NCI-H522 lung) | TGI (786-0 renal) | TGI (KM20L2 colon) | TGI (HOP-92 NSCLC) | TGI (A549 NSCLC) | TGI (SF-539 CNS) | TGI (SK-MEL-28 melanoma) | TGI (M14 melanoma) | TGI (A498 renal) | TGI (EKVX NSCLC) | TGI (TK-10 renal) | TGI (OVCAR-3 ovarian) | TGI (NCI-H23 lung) | TGI (SK-MEL-5 melanoma) | TGI (OVCAR-8 ovarian) | TGI (LOX IMVI melanoma) | TGI (OVCAR-5 ovarian) | TGI (UACC-257 melanoma) | TGI (KM12 colon) | TGI (HL-60(TB) leukemia) | TGI (SK-MEL-2 melanoma) | TGI (SNB-78 CNS) | TGI (DMS 273 small cell lung) | TGI (SW-620 colon) | TGI (K-562 leukemia) | TGI (HT29 colon) | TGI (HOP-62 NSCLC) | TGI (HCT-116 colon) | TGI (SK-OV-3 ovarian) | TGI (ACHN renal) | TGI (HCT-15 colon) | TGI (IGROV1 ovarian) | TGI (U251 CNS) | TGI (OVCAR-4 ovarian) | TGI (NCI-H460 lung) | TGI (LXFL 529 NSCLC) | TGI (SNB-75 CNS) | TGI (SN12C renal) | TGI (SF-268 CNS)
inactive: GI50 (RPMI-8226 leukemia) > 100 µM | GI50 (UO-31 renal) 90.6 µM | GI50 (SNB-19 CNS) > 100 µM | GI50 (CCRF-CEM leukemia) > 100 µM | GI50 (COLO 205 colon) > 100 µM | GI50 (MALME-3M melanoma) > 100 µM | GI50 (MOLT-4 leukemia) 53.5 µM | GI50 (SF-295 CNS) > 100 µM | GI50 (HCC-2998 colon) > 100 µM | GI50 (DLD-1 colon) > 100 µM | GI50 (UACC-62 melanoma) > 100 µM | GI50 (NCI-H522 lung) > 100 µM | GI50 (786-0 renal) > 100 µM | GI50 (KM20L2 colon) > 100 µM | GI50 (HOP-92 NSCLC) > 100 µM | GI50 (A549 NSCLC) > 100 µM | GI50 (SF-539 CNS) > 100 µM | GI50 (SK-MEL-28 melanoma) > 100 µM | GI50 (M14 melanoma) > 100 µM | GI50 (A498 renal) > 100 µM | GI50 (EKVX NSCLC) > 100 µM | GI50 (TK-10 renal) > 100 µM | GI50 (OVCAR-3 ovarian) > 100 µM | GI50 (NCI-H23 lung) > 100 µM | GI50 (SK-MEL-5 melanoma) > 100 µM | GI50 (OVCAR-8 ovarian) > 100 µM | GI50 (LOX IMVI melanoma) > 100 µM | GI50 (OVCAR-5 ovarian) > 100 µM | GI50 (UACC-257 melanoma) > 100 µM | GI50 (KM12 colon) > 100 µM | GI50 (HL-60(TB) leukemia) > 100 µM | GI50 (SK-MEL-2 melanoma) > 100 µM | GI50 (SNB-78 CNS) > 100 µM | GI50 (DMS 273 small cell lung) > 100 µM | GI50 (SW-620 colon) > 100 µM | GI50 (K-562 leukemia) > 100 µM | GI50 (HT29 colon) > 100 µM | GI50 (HOP-62 NSCLC) > 100 µM | GI50 (HCT-116 colon) > 100 µM | GI50 (SK-OV-3 ovarian) > 100 µM | GI50 (ACHN renal) > 100 µM | GI50 (HCT-15 colon) > 100 µM | GI50 (IGROV1 ovarian) > 100 µM | GI50 (U251 CNS) > 100 µM | GI50 (OVCAR-4 ovarian) > 100 µM | GI50 (NCI-H460 lung) > 100 µM | GI50 (LXFL 529 NSCLC) > 100 µM | GI50 (SNB-75 CNS) > 100 µM | GI50 (SN12C renal) > 100 µM | GI50 (SF-268 CNS) > 100 µM
